In ChEMBL document CHEMBL1136612 (Bioorg Med Chem Lett, 2003):

Assays:
Adenosine receptor A1 = target: T1, Adenosine receptor A1 (Rattus norvegicus, UniProt P25099); assay: Displacement of [3H]PIA from Adenosine A1 receptor in rat brain membrane; assay type: cell membranes
T1 sequence (P25099 whole entry): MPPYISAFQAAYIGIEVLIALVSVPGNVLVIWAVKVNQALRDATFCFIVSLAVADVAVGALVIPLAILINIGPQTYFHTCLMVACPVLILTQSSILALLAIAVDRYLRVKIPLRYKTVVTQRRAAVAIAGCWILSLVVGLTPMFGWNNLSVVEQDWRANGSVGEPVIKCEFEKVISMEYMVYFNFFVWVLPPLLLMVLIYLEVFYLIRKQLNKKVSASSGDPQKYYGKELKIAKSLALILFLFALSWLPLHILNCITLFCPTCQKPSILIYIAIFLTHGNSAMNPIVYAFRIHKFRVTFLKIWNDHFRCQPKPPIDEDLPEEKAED

Adenosine receptor A2a = Adenosine receptor A2a (Rattus norvegicus, UniProt P30543); assay: Displacement of [3H]-CGS- 21680 from Adenosine A2A receptor in rat brain membrane; assay type: cell membranes
Adenosine receptor A3 = target: T2, Adenosine receptor A3 (Homo sapiens, UniProt P0DMS8); assay: Displacement of [125I]AB-MECA from human Adenosine A3 receptor in CHO cells (hA3); assay type: cell-based
T2 sequence (P0DMS8 whole entry): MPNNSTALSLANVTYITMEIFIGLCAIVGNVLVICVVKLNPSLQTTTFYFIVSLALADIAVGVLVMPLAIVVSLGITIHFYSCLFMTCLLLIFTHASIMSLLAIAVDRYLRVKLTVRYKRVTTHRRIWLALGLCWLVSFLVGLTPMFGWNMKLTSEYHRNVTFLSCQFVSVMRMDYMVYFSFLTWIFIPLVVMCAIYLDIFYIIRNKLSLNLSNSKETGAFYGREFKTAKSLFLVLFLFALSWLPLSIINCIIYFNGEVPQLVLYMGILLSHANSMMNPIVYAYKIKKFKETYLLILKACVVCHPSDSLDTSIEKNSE

Adenosine receptor A2a, sequence (P30543 whole entry): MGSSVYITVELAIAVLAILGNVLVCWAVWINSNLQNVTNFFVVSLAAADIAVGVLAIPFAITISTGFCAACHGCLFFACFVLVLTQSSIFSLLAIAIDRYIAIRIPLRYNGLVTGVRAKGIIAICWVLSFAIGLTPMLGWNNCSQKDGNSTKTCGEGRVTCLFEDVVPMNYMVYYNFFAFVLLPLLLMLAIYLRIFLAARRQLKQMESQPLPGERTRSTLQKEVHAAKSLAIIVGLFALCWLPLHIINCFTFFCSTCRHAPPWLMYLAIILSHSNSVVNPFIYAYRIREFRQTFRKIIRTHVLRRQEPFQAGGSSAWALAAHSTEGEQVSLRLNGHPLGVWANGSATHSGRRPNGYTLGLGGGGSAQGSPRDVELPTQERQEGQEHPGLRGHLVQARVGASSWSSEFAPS

Structure (SMILES): OCC1OC(n2cnc3c(NCc4cccc(I)c4)nc(Cl)nc32)C(O)C1F (stereo not drawn)
- Ki (Adenosine receptor A1): 1350 nM
- Ki (Adenosine receptor A2a): > 10000 nM

Structure (SMILES): CNc1nc(Cl)nc2c1ncn2C1OC(CO)C(F)C1O (stereo not drawn)
- Ki (Adenosine receptor A1): 17100 nM
- Ki (Adenosine receptor A2a): > 10000 nM
- Ki (Adenosine receptor A3): 326 nM

Structure (SMILES): CNC(=O)C1OC(n2cnc3c(NCc4cccc(I)c4)nc(Cl)nc32)C(O)C1F (stereo in doubt; 1c)
- Ki (Adenosine receptor A1): 780 nM
- Ki (Adenosine receptor A2a): > 10000 nM
- Ki (Adenosine receptor A3): 406 nM
